Data taken from patent EP0402734A2, “Composition for the treatment of application of the central nervous system and to enhance cerebral perfusion” (Dr. Karl Thomae GmbH, priority 1989, dated 1990).

Columns and labels:
[1] = molecular target: muscarinische Rezeptoren der Pia mater des Rindes; assay: Inhibition of 3H-NMS binding to muscarinic receptors in bovine pia mater vessel homogenate; design: species or system Rind; conditions: Hemmung der ³H-NMS-Bindung, 0,3 nM [³H]NMS, 45 min, room temperature
Experimental: A. Bindung verschiedener muskarinischer Antagonisten an Rezeptoren der Pia mater des Rindes
Die Pia-Gefäße von Rinder-Hirnen, erhalten vom lokalen Schlachthof, wurden präpariert und von Blutresten gereinigt. Je 0,5 g-Portionen wurden bei -80°C bis zur weiteren Verwendung gelagert. Zur Homogenatgewinnung wurden 0,5 g Pia-Gefäße mittels eines Gewebehackers zerkleinert, in 60 ml HEPES-Puffer (20 mM HEPES, 10 mM MgCl₂, 100 mM NaCl, pH 7,50) aufgenommen, mit einem Ultra-Turrax homogenisiert und 20 min. bei 0°C mit 48000 x g zentrifugiert. Das Pellet wurde erneut mit einem Ultra-Turrax homogenisiert, durch Mull filtriert und mit HEPES-Puffer auf eine Verdünnung von 1:140 bezogen auf das Feuchtgewicht der Gefäße verdünnt.
0,3 nM [³H]NMS (³H-N-Methylscopolamin) und steigende Konzentrationen des Antagonisten wurden mit dem Homogenat in einem Gesamtvolumen von 0,52 ml für 45 min. bei Raumtemperatur inkubiert. Der Inkubationsansatz wurde mit Hilfe eines Scatron Cell Harvesters über Glasfaser-Filtermatten filtriert und zweimal mit eiskalter physiologischer Kochsalzlösung gewaschen. Die Filter-gebundene Radioaktivität wurde in einem Flüssigkeitsszintillationszähler bestimmt. Als unspezifische Bindung wurde die gebundene Radioaktivität in Gegenwart von 10⁻⁶M (-)-Chinuclidinyl-benzilat definiert.

[2] = system: inhibitorischen Autorezeptoren in hippocampalem Gewebe; assay: Transmitter release study: in vitro acetylcholine release from electrically stimulated hippocampal slices, antagonism of carbachol; assay type: cell-based, Ratten; conditions: rat hippocampal slices 0,4 mm, preloaded with ³H-Cholin, electrical stimulation 3 Hz, agonist Carbachol
Excerpt: B. Transmitter Release Studien
Die Versuche zur in-vitro Freisetzung von Acetylcholin aus hippocampalen Gewebeschnitten wurden in Analogie zu Anord nungen durchgeführt, die für die Freisetzung von 5-HT aus Hypothalamus- bzw. Hippocampus-Gewebe beschrieben sind (vgl. M.H. Richards, Naunyn Schmiedeberg's Arch. Pharmacol. 329, 359-366 (1985) und T.J. Feuerstein, G. Hertting und R. Jackisch, Europ. J. Pharmacol. 107, 233-242 (1985)).
Männliche Ratten (Stamm Chbb:Thom, Gewicht 200 bis 300 g) wurden ohne Vorbehandlung dekapitiert; das gesamte Gehirn wurde sofort entnommen und unter Eiskühlung zerlegt. Gemäß den oben beschriebenen Verfahren wurde der Hippocampus in 0,4 mm dicke Schnitte mit Hilfe eines McIlwain-Gewebehackers geschnitten. Die Gewebeschnitte wurden 30 Minuten lang bei 37°C vorincubiert in Gegenwart von 0,05 mM ³H-Cholin in Krebs-Henseleit Puffer der folgenden Zusammensetzung: 120 mM NaCl, 4,8 mM KCl, 1,3 mM CaCl₂, 1,2 mM KH₂PO₄, 1,2 mM MgSO₄ und 25 mM NaHCO₃. Der Puffer enthielt zusätzlich 2 g Glucose und 100 mg EDTA. Der Puffer wurde mit Natronlauge auf einen pH-Wert von 7,4 bei 20°C eingestellt. Alle Lösungen wurden kontinuierlich mit 95 % O₂ und 5 % CO₂ gesättigt. Die Gewebeschnitte wurden daraufhin gespült, jeder Gewebeschnitt wurde jeweils willkürlich auf 12 Superfusionseinheiten gegeben und mit der Pufferlösung bei 37°C bei einer Fließgeschwindigkeit von 1 ml/min überspült. Die Gewebeschnitte wurden jeweils von einem Polypropylennetzwerk zwischen zwei Platinelektroden gehalten. Nach 50-minütiger Überspülung wurden 4-Minuten-Fraktionen des Superfusats über eine gesamte Zeitdauer von 92 Minuten gesammelt. Die Gewebeschnitte wurden zweimal elektrisch stimuliert, und zwar 60 Minuten (S1) und 100 Minuten (S2) nach Beginn der Superfusion. Dabei wurden Rechteckimpulse von 2 ms Dauer und mit einer Frequenz von 3 Hz 100 Sekunden lang bei 5 V/cm und 24 mA mittels eines HSE Stimulators II der Firma Hugo Sachs Elektronik, Hugstetten, West-Deutschland, verabreicht. Die zu prüfenden Substanzen wurden dem Puffer ab 20 Minuten vor dem Zeitpunkt S2 zusammen mit dem Agonisten (Carbachol) beigefügt. Am Ende wurden die Gewebeschnitte aus den Kammern entfernt und zur Bestimmung des verbliebenen Tritiums solubilisiert. […]

Row | Structure (SMILES) | -log IC₅₀ (M) [1] | ACh-Release aus Hippocampus-Gewebe (pA₂) [2]
1 | O=C1Nc2cccnc2N(C(=O)N2CCCC(CCCN3CCCCC3)C2)c2ccccc21 (centres unmarked) [E, 5,11-Dihydro-11-[[3-[3-(1-piperidinyl)-1-propyl]-1-piperidinyl]carbonyl]-6H-pyrido[2,3-b][1,4]benzodiazepin-6-on] | 8,8 M | 9,55
2 | O=C1Nc2cccnc2N(C(=O)CCC#CCN2CCCCC2)c2ccccc21 [B, 5,11-Dihydro-11-[1-oxo-6-(1-piperidinyl)-4-hexin-1-yl]-6H-pyrido[2,3-b][1,4]benzodiazepin-6-on] | 6,9 M | 7,2
3 | Cc1scc2c1N(C(=O)CCC#CCN1CCCCCC1)c1ccccc1NC2=O [H, 4,9-Dihydro-3-methyl-4-[6-(hexahydro-1H-1-azepinyl)-1-oxo-4-hexin-1-yl]-10H-thieno[3,4-b][1,5]benzodiazepin-10-on] | 8,0 M | 8,0
4 | CCN(CC)CC1CCCCN1CC(=O)N1c2ccccc2C(=O)Nc2cccnc21 (single isomer, unassigned; (+)) [A, (+)-11-[[2-[(Diethylamino)methyl]-1-piperidinyl]acetyl]-5,11-dihydro-6H-pyrido[2,3-b][1,4]benzodiazepin-6-on] | 7,1 M | 7,15
5 | Cc1scc2c1N(C(=O)CN1CCC(CCCN3CCCCC3)CC1)c1ccccc1NC2=O [F, 4,9-Dihydro-3-methyl-4-[[4-[3-(1-piperidinyl)-1-propyl]-1-piperidinyl]acetyl]-10H-thieno[3,4-b][1,5]benzodiazepin-10-on] | 8,6 M | 7,7
6 | CN(CCC1CCCN1C)CC(=O)N1c2ccccc2C(=O)Nc2cccnc21 (centres unmarked) [K, 5,11-Dihydro-11-[[[2-(1-methyl-2-pyrrolidinyl)ethyl]methylamino]acetyl]-6H-pyrido[2,3-b][1,4]benzodiazepin-6-on] | 8,2 M | 8,5
7 | CCCN(CCC)CC1CCCCN1CCNC(=O)N1c2ccccc2C(=O)Nc2cccnc21.CS(=O)(=O)O (centres unmarked) [D, 5,11-Dihydro-11-[[[2-[2-[(dipropylamino)methyl]-1-piperidinyl]ethyl]amino]carbonyl]-6H-pyrido[2,3-b][1,4]benzodiazepin-6-on-methansulfonat] | 7,9 M | 8,35
8 | CCN(CC)CC1COCCN1CCCC(=O)N1c2ccccc2C(=O)Nc2cccnc21 (centres unmarked) [I, 11-[4-[3-[(Diethylamino)methyl]-4-morpholinyl]-1-oxo-1-butyl]-5,11-dihydro-6H-pyrido[2,3-b][1,4]benzodiazepin-6-on] | 7,7 M | 7,5
9 | CN(CCC1CCCCCN1C)CC(=O)N1c2ccccc2C(=O)Nc2cccnc21 (centres unmarked) [L, 5,11-Dihydro-11-[[[2-(1-methyl-hexahydro-1H-2-azepinyl)ethyl]methylamino]acetyl]-6H-pyrido[2,3-b][1,4]benzodiazepin-6-on] | 8,4 M | 8,45
10 | CCN(CC)CC1CCCCN1CC(=O)N1c2cc(Cl)ccc2C(=O)Nc2cccnc21 (racemic) [C, (±)-9-Chlor-11-[[2-[(diethylamino)methyl]-1-piperidinyl]acetyl]-5,11-dihydro-6H-pyrido[2,3-b][1,4]benzodiazepin-6-on] | 7,5 M | 7,3
